In one data set the test system is Echinochloa crus. The note with it: for plant mortality, measured value: Echinochloa crus; for Echinochloa crus mortality, measured value: 20 days after treatment.
Another data set relates to Aeschynomene indica. The experiment in a line: whole plant or invertebrate.
The next data set has as its system Digitaria sanguinalis. Conditions: for plant mortality, measured value: Digitaria sanguinalis; for Digitaria sanguinalis mortality, measured value: 20 days after treatment.
The next data set deals with Xanthium spinosum. The experiment in a line: whole plant or invertebrate.
Another data set deals with Abutilon theophrasti. Put plainly: whole plant or invertebrate.
Where [1] appears, read: read-out: plant mortality, measured value, 125 g/ha.
The mark [2] stands for this setting: read-out: plant mortality, measured value, 250 g/ha.
Where [3] appears, read: read-out: plant mortality, measured value, 500 g/ha.
[4] abbreviates: read-out: plant mortality, measured value, 175 g/ha.
[5] abbreviates: read-out: plant mortality, measured value, 350 g/ha.
The mark [6] stands for this setting: read-out: plant mortality, measured value, 700 g/ha.
Setting [7] is: read-out: plant mortality, measured value, 25 g/ha.
Where [8] appears, read: read-out: plant mortality, measured value, 50 g/ha.
[9] abbreviates: read-out: plant mortality, measured value, 100 g/ha.
Setting [10] is: 480 h, read-out: Aeschynomene indica mortality, measured value.
Where [11] appears, read: 480 h, read-out: Xanthium spinosum mortality, measured value.
Setting [12] is: 480 h, read-out: Abutilon theophrasti mortality, measured value.

Structures are written as SMILES. Like-named read-outs stand apart in the source and are kept apart here.

By mortality is commonly meant the share of the test organisms that died.

Excerpt for Abutilon theophrasti: (§1) X is % damage by uracil compound (a) of formula 1 at the rate of application of p kg/ha; Y is % damage by conventional herbicidal compound (b) at the rate of application of q kg/ha; and E is the expected damage caused by compounds (a) and (b) at a rate of application of p and q kg/ha.
(§2) The expected activity for a given combination of two herbicides can be calculated using equation 1 above.
Excerpt for Aeschynomene indica: as §1, §2
Excerpt for Digitaria sanguinalis: as §1, §2
Excerpt for Echinochloa crus: as §1, §2
Excerpt for Xanthium spinosum: as §1, §2

With `CC(C)N1C(=O)c2ccccc2NS1(=O)=O` [Bentazone], the “plant mortality, measured value” in the data set on Echinochloa crus (125 g/ha), with Echinochloa crus (250 g/ha), in the data set with Echinochloa crus (500 g/ha), with Digitaria sanguinalis (125 g/ha), in the data set on Digitaria sanguinalis (250 g/ha) and in the data set on Digitaria sanguinalis (500 g/ha) was 0 in each case. Moreover, the pest or weed control at 125 g/ha with Aeschynomene indica (setting [1]) came out at 10%; in the data set with Xanthium spinosum (setting [1]) it was 8%; with Abutilon theophrasti (setting [1]), 9%. Also, the pest or weed control at 250 g/ha was found to be 22% with Aeschynomene indica (setting [2]), 18% with Xanthium spinosum (setting [2]) and 22% with Abutilon theophrasti (setting [2]). Moreover, the pest or weed control at 500 g/ha in the data set with Aeschynomene indica (setting [3]) came out at 52%; with Xanthium spinosum (setting [3]), 45%; with Abutilon theophrasti (setting [3]), 49%.

With `COc1cc(OC)nc(Oc2cccc(Oc3nc(OC)cc(OC)n3)c2C(=O)O)n1` [Bispyribac-sodium], the “Data (measured value) Echinochloa crus” value in the data set on Echinochloa crus (15 g/ha) turned out to be 23; in the data set with Echinochloa crus (30 g/ha), 45. Also, the pest or weed control at 15 g/ha was 23% with Aeschynomene indica (read-out: Data (measured value) Aeschynomene indica, 15 g/ha); 27% with Xanthium spinosum (read-out: Data (measured value) Xanthium spinosum, 15 g/ha); 31% with Abutilon theophrasti (read-out: Data (measured value) Abutilon theophrasti, 15 g/ha). Besides, the pest or weed control at 30 g/ha came out at 49% in the data set on Aeschynomene indica (read-out: Data (measured value) Aeschynomene indica, 30 g/ha); 58% in the data set on Xanthium spinosum (read-out: Data (measured value) Xanthium spinosum, 30 g/ha); 62% in the data set on Abutilon theophrasti (read-out: Data (measured value) Abutilon theophrasti, 30 g/ha). For the same compound, the “Data (measured value) Digitaria sanguinalis” value in the data set on Digitaria sanguinalis (15 g/ha) is listed as 20; in the data set on Digitaria sanguinalis (30 g/ha) it was 47.

In the case of `Nc1cnn(-c2ccccc2)c(=O)c1Cl` [Chloridazon], the “plant mortality, measured value” in the data set with Echinochloa crus (175 g/ha) was determined as 13; with Echinochloa crus (350 g/ha) it was 27; in the data set on Echinochloa crus (700 g/ha), 54; in the data set with Digitaria sanguinalis (175 g/ha), 14; in the data set on Digitaria sanguinalis (350 g/ha), 28; in the data set with Digitaria sanguinalis (700 g/ha), 63. Moreover, the pest or weed control at 175 g/ha is 11% in the data set with Aeschynomene indica (setting [4]), 7% with Xanthium spinosum (setting [4]) and 14% in the data set with Abutilon theophrasti (setting [4]). Moreover, the pest or weed control at 350 g/ha in the data set with Aeschynomene indica (setting [5]) stood at 29%; with Xanthium spinosum (setting [5]), 22%; in the data set with Abutilon theophrasti (setting [5]), 30%. Also, the pest or weed control at 700 g/ha is 57% in the data set with Aeschynomene indica (setting [6]), 46% in the data set on Xanthium spinosum (setting [6]) and 64% with Abutilon theophrasti (setting [6]).

On to `CCSC(C)CC1CC(=O)C(/C(CC)=N/OC/C=C/Cl)=C(O)C1` (stereo not shown) [Clethodim], for which the “Data (measured value) Echinochloa crus” value with Echinochloa crus (25 g/ha) stood at 11; in the data set with Echinochloa crus (50 g/ha) it was 31; in the data set with Echinochloa crus (100 g/ha), 65. Further, the “plant mortality, measured value” is 11 with Echinochloa crus (25 g/ha); 31 in the data set on Echinochloa crus (50 g/ha); 65 in the data set on Echinochloa crus (100 g/ha); 6 in the data set on Digitaria sanguinalis (25 g/ha); 19 in the data set with Digitaria sanguinalis (50 g/ha); 45 in the data set on Digitaria sanguinalis (100 g/ha). Further, the pest or weed control at 25 g/ha in the data set on Aeschynomene indica (read-out: Data (measured value) Aeschynomene indica, 25 g/ha) came out at 0%; in the data set with Aeschynomene indica (setting [7]), 0%; with Xanthium spinosum (read-out: Data (measured value) Xanthium spinosum, 25 g/ha), 0%; in the data set with Xanthium spinosum (setting [7]) it was 0%; with Abutilon theophrasti (read-out: Data (measured value) Abutilon theophrasti, 25 g/ha), 0%; with Abutilon theophrasti (setting [7]), 0%. Further, the pest or weed control at 50 g/ha came out at 0% in the data set with Aeschynomene indica (read-out: Data (measured value) Aeschynomene indica, 50 g/ha); 0% in the data set with Aeschynomene indica (setting [8]); 0% in the data set on Xanthium spinosum (read-out: Data (measured value) Xanthium spinosum, 50 g/ha); 0% in the data set on Xanthium spinosum (setting [8]); 0% with Abutilon theophrasti (read-out: Data (measured value) Abutilon theophrasti, 50 g/ha); 0% with Abutilon theophrasti (setting [8]). Moreover, the pest or weed control at 100 g/ha in the data set with Aeschynomene indica (read-out: Data (measured value) Aeschynomene indica, 100 g/ha) came to 0%; in the data set on Aeschynomene indica (setting [9]), 0%; with Xanthium spinosum (read-out: Data (measured value) Xanthium spinosum, 100 g/ha) it was 0%; with Xanthium spinosum (setting [9]), 0%; with Abutilon theophrasti (read-out: Data (measured value) Abutilon theophrasti, 100 g/ha), 0%; in the data set with Abutilon theophrasti (setting [9]) it was 0%. Further, the “Data (measured value) Digitaria sanguinalis” value in the data set on Digitaria sanguinalis (25 g/ha) was found to be 6; in the data set with Digitaria sanguinalis (50 g/ha) it was 19; with Digitaria sanguinalis (100 g/ha) it was 45.

As for `COC(=O)CCNC(=O)C(C)Oc1cc(-n2c(=O)cc(C(F)(F)F)n(C)c2=O)c(F)cc1Cl` (stereo not shown) [Compound 1, 3-[{2-[2-chloro-5-(3,6-dihydro-3-methyl-2,6-dioxo-4-trifluoromethyl-1(2H)-pyrimidinyl)-4-fluorophenoxy]-1-oxopropyl}amino]propionic acid methyl ester], the “Echinochloa crus mortality, measured value” (from here on “Echinochloa crus mortality”) is given as 0% in the data set with Echinochloa crus (4 g/ha), 5% with Echinochloa crus (8 g/ha) and 17% with Echinochloa crus (16 g/ha). The mortality at 4 g/ha is 18% with Aeschynomene indica (setting [10]), 11% with Xanthium spinosum (setting [11]) and 17% in the data set with Abutilon theophrasti (setting [12]). In addition, the mortality at 8 g/ha with Aeschynomene indica (setting [10]) came to 45%; in the data set with Xanthium spinosum (setting [11]), 39%; in the data set with Abutilon theophrasti (setting [12]), 45%. Besides, the mortality at 16 g/ha with Aeschynomene indica (setting [10]) amounted to 60%; with Xanthium spinosum (setting [11]) it was 52%; in the data set with Abutilon theophrasti (setting [12]), 60%. Besides, the “Digitaria sanguinalis mortality, measured value” (shortened to “Digitaria sanguinalis mortality”) in the data set with Digitaria sanguinalis (4 g/ha) was 0%; in the data set on Digitaria sanguinalis (8 g/ha), 5%; in the data set on Digitaria sanguinalis (16 g/ha), 20%.

As for `COc1c(Cl)ccc(Cl)c1C(=O)O` [Dicamba], the “Data (measured value) Echinochloa crus” value with Echinochloa crus (75 g/ha), in the data set on Echinochloa crus (150 g/ha) and in the data set with Echinochloa crus (300 g/ha) was 0 each time. In addition, the pest or weed control at 75 g/ha with Aeschynomene indica (read-out: Data (measured value) Aeschynomene indica, 75 g/ha) is 7%; in the data set on Xanthium spinosum (read-out: Data (measured value) Xanthium spinosum, 75 g/ha), 13%; in the data set with Abutilon theophrasti (read-out: Data (measured value) Abutilon theophrasti, 75 g/ha), 9%. The pest or weed control at 150 g/ha with Aeschynomene indica (read-out: Data (measured value) Aeschynomene indica, 150 g/ha) is 23%; with Xanthium spinosum (read-out: Data (measured value) Xanthium spinosum, 150 g/ha) it was 29%; in the data set with Abutilon theophrasti (read-out: Data (measured value) Abutilon theophrasti, 150 g/ha), 20%. Further, the pest or weed control at 300 g/ha in the data set on Aeschynomene indica (read-out: Data (measured value) Aeschynomene indica, 300 g/ha) was 51%; in the data set with Xanthium spinosum (read-out: Data (measured value) Xanthium spinosum, 300 g/ha), 62%; in the data set on Abutilon theophrasti (read-out: Data (measured value) Abutilon theophrasti, 300 g/ha), 46%. Further, the “Data (measured value) Digitaria sanguinalis” value with Digitaria sanguinalis (75 g/ha), in the data set with Digitaria sanguinalis (150 g/ha) and in the data set on Digitaria sanguinalis (300 g/ha) was 0 in each case.

In the case of `CC(Oc1ccc(Oc2nc3ccc(Cl)cc3o2)cc1)C(=O)O` (stereo not shown) [Fenoxaprop, reference compound], the “Echinochloa crus mortality” value in the data set on Echinochloa crus (25 g/ha) came out at 13%; in the data set with Echinochloa crus (50 g/ha), 31%; with Echinochloa crus (100 g/ha), 65%. The mortality at 25 g/ha in the data set on Aeschynomene indica (setting [10]), in the data set with Xanthium spinosum (setting [11]) and in the data set with Abutilon theophrasti (setting [12]) was 0% throughout. The mortality at 50 g/ha in the data set with Aeschynomene indica (setting [10]), with Xanthium spinosum (setting [11]) and in the data set with Abutilon theophrasti (setting [12]) was 0% throughout. For the same compound, the mortality at 100 g/ha with Aeschynomene indica (setting [10]), in the data set on Xanthium spinosum (setting [11]) and in the data set on Abutilon theophrasti (setting [12]) was 0% throughout. The “Digitaria sanguinalis mortality” value in the data set with Digitaria sanguinalis (25 g/ha) was determined as 13%; with Digitaria sanguinalis (50 g/ha), 32%; in the data set on Digitaria sanguinalis (100 g/ha), 64%.

As to `CC(Oc1ccc(Oc2ccc(C(F)(F)F)cn2)cc1)C(=O)O` (stereo not shown) [Fluazifop, reference compound], the “Echinochloa crus mortality” value came to 10% in the data set on Echinochloa crus (50 g/ha), 26% with Echinochloa crus (100 g/ha) and 61% in the data set with Echinochloa crus (200 g/ha). The mortality at 50 g/ha in the data set with Aeschynomene indica (setting [10]), with Xanthium spinosum (setting [11]) and in the data set on Abutilon theophrasti (setting [12]) was 0% throughout. The mortality at 100 g/ha in the data set with Aeschynomene indica (setting [10]), in the data set with Xanthium spinosum (setting [11]) and in the data set on Abutilon theophrasti (setting [12]) was 0% throughout. Further, the mortality at 200 g/ha with Aeschynomene indica (setting [10]), with Xanthium spinosum (setting [11]) and with Abutilon theophrasti (setting [12]) was 0% each time. Moreover, the “Digitaria sanguinalis mortality” value with Digitaria sanguinalis (50 g/ha) was 9%; with Digitaria sanguinalis (100 g/ha) it was 21%; in the data set on Digitaria sanguinalis (200 g/ha), 52%.
